Assay results as given in patent US7307063B2, “Melanocortin metallopeptides for treatment of sexual dysfunction” (Palatin Technologies, Inc., priority 2001, dated 2007).
Several values for one entry are separate records, joined by “and”; a condition that tells them apart may be missing. Equal values may be shown once. Non-standard residues stand in square brackets, D forms with d. No end group written: not given here. Tiq = 1,2,3,4-tetrahydroisoquinoline-1-carboxylic acid; Bip = N[C@@H](Cc1ccc(-c2ccccc2)cc1)C(=O)O; d(pGlu) = O=C1CC[C@H](C(=O)O)N1; code Z = not defined here; Ac5c = NC1(C(=O)O)CCCC1

What was measured:
[1] = test system: Male Sprague-Dawley rats; experiment: Combination penile erection behavior studies: antagonist IV before IN agonist; assay type: in vivo, rat;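 as to Mean Penile Erections/Rat: Erections counted over 30 min observation after IN dosing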;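 as to Percent with Penile Erections: Erections counted over 30 min observation after IN dosing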
Procedure: Conditions were as in Example 3 except as noted. Groups of 5-6 rats received an IV dose of either placebo or antagonist 5 minutes prior to an IN dose of either placebo or agonist. Two antagonists were used: ReO[Heptanoyl-Ser(Bzl)-D-Nal 2′-Arg-Trp-Cys-NH2] and SHU9119 (Hruby V J, Lu D, Sharma S D, et al. J Med Chem 38:3454-3461 (1995)), Ac-Nle-cyclo(-Asp-His-D-Nal 2′-Arg-Trp-Lys)-NH2. The agonist used was Ac-Nle-cyclo(-Asp-His-D-Phe-Arg-Trp-Lys)-OH. Immediately after IN treatment, rats were placed into individual Lucite cages for observation. […] In combination studies, the antagonist was dosed IV 5 minutes prior to a 50 μg/kg IN dose of Ac-Nle-cyclo(-Asp-His-D-Phe-Arg-Trp-Lys)-OH.
These studies were conducted as described above in Example 4 with metallopeptide antagonists administered IV five minutes before IN administration of 50 μg/kg Ac-Nle-cyclo(-Asp-His-D-Phe-Arg-Trp-Lys)-OH. […] The potency of these antagonists also correlated with their relative binding affinities in the in vitro binding assays.

[2] = biological target: T1, MC1-R (Mus musculus, UniProt Q01727); experiment: Competitive binding assay: inhibition of 125I-NDP-α-MSH binding to membranes from B16-F10 mouse melanoma cells; conditions: Table 6; 1 μM; mean of triplicate
T1 construct: MC1-R membranes were isolated from B16—F10 mouse melanoma cells; endogenous in cells; host or cells: B16-F10 mouse melanoma cells
T1 sequence (Q01727 whole entry): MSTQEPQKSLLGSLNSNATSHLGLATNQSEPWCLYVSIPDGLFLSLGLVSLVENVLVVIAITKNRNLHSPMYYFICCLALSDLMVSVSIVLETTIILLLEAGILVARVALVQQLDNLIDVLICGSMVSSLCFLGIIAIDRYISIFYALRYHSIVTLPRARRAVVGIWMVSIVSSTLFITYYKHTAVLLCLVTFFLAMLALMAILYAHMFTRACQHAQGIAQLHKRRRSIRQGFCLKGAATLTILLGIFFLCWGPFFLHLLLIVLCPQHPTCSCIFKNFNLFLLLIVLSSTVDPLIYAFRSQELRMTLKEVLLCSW
How it was run: (§1)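 Membranes: B16-F10 mouse melanoma (MC1-R) or HEK-293 expressing cloned human subtypes. Radioligand 125I-NDP-α-MSH; NSB with 1 μM α-MSH; metallopeptide at chosen concentration; readout % inhibition of specific binding.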

[3] = biological target: T2, MC4-R (Homo sapiens, UniProt P32245); experiment: Competitive binding assay: inhibition of 125I-NDP-α-MSH binding to HEK-293 membranes with cloned human receptor subtype 4; conditions: Table 6; 1 μM; mean of triplicate
T2 construct: expressed in transfected cells; host or cells: HEK-293
T2 sequence (P32245 whole entry): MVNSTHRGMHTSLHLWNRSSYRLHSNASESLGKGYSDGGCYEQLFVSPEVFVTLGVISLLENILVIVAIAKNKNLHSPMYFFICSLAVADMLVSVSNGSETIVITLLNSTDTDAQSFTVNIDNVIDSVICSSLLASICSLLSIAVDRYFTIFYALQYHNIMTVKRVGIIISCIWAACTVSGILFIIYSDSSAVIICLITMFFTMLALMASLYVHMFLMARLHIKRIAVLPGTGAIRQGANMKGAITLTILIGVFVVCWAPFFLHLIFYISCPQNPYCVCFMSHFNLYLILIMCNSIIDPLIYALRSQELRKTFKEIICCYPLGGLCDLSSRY
How it was run: as §1

[4] = biological target: T3, hMC5-R (Homo sapiens, UniProt P33032); experiment: Competitive binding assay: inhibition of 125I-NDP-α-MSH binding to HEK-293 membranes with cloned human receptor subtype 5; conditions: Table 6; 1 μM; mean of triplicate
T3 construct: expressed in transfected cells; host or cells: HEK-293
T3 sequence (P33032 whole entry): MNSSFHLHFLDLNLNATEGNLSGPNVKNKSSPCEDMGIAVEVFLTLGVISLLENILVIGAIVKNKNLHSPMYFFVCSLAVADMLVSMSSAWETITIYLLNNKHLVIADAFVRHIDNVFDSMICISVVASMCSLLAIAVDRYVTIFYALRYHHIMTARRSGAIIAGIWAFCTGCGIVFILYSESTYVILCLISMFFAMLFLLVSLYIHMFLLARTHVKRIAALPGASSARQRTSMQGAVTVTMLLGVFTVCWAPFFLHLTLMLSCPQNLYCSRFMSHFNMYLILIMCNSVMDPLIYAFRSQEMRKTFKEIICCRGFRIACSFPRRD
How it was run: as §1

[5] = biological target: T4, hMC2-R (Homo sapiens, UniProt P41968); experiment: Competitive binding assay of additional compounds, Table 6 hMC2-R; conditions: 1 μM, mean of triplicate
T4 construct: expressed in transfected cells; host or cells: HEK-293
T4 sequence (P41968 whole entry): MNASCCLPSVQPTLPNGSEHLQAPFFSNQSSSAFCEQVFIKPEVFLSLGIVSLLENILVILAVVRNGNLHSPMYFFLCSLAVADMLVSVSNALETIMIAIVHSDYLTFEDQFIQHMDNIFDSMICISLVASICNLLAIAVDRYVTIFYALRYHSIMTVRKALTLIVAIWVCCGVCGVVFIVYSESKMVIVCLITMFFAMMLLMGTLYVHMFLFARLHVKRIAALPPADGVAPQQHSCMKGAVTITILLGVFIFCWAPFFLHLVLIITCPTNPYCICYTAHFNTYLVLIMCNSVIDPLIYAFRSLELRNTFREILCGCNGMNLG

[6] = biological target: T2, MC4-R; experiment: Functional activity assay: intracellular cAMP in HEK-293 cells expressing MC4-R; assay type: cell-based; conditions: Re-complexed peptide
Procedure: Rhenium-complexed metallopeptides were prepared, with functional evaluation of peptides at MC1-R and MC4-R performed by measuring the accumulation of intracellular cAMP in HEK-293 cells expressing MC4-R or B16-F10 mouse melanoma cells expressing MC1-R. Antagonistic activity was determined by measuring the inhibition of α-MSH-induced cAMP levels following exposure to peptide. Cells, suspended in Earle's Balanced Salt Solution containing 10 mM HEPES, pH 7.5, 5 mM MgCl2, 1 mM glutamine, 0.1% albumin and 0.6 mM 3-isobutyl-1-methyl-xanthine, a phosphodiesterase inhibitor, were plated in 96 well plates at a density of 0.5×10^5 cells per well. Cells were incubated with the test peptides in the presence or absence of α-MSH for 1 hour at 37° C. cAMP levels were measured by EIA (Amersham) in the cell lysates. Data analysis and EC50 values were determined using nonlinear regression analysis with Prism Graph-Pad software.

[7] = agonist alone 50 μg/kg IN, arm of the ReO[Heptanoyl-Ser(Bzl)-D-Nal 2′-Arg-Trp-Cys-NH2] study
[8] = agonist alone 50 μg/kg IN, arm of the SHU9119 study
[9] = combination: antagonist 5 μg/kg IV 5 min prior to 50 μg/kg IN Ac-Nle-cyclo(-Asp-His-D-Phe-Arg-Trp-Lys)-OH

Substance | % Inhibition of Binding MC1-R [2] | % Inhibition of Binding hMC4-R [3] | % Inhibition of Binding hMC5-R [4] [%] | % Inhibition of Binding hMC2-R [5] [%] | further results
Ac-Nle-cyclo(-Asp-His-D-Phe-Arg-Trp-Lys)-OH |  |  |  |  | Mean Penile Erections/Rat [1, 7]: 1.2 ± 0.3; Percent with Penile Erections [1, 7]: 83%; Mean Penile Erections/Rat [1, 8]: 1.6 ± 0.2; Percent with Penile Erections [1, 8]: 100%
Ac-Nle-cyclo(-Asp-His-D-Nal 2′-Arg-Trp-Lys)-NH2 |  |  |  |  | Mean Penile Erections/Rat ([1]; antagonist alone, 5 μg/kg IV): 0; Percent with Penile Erections ([1]; antagonist alone, 5 μg/kg IV): 0%; Mean Penile Erections/Rat [1, 9]: 0; Percent with Penile Erections [1, 9]: 0%; Effect on erectile behavior induced by Ac-Nle-cyclo(-Asp-His-D-Phe-Arg-Trp-Lys)-OH, in words ([1]; rats, antagonist IV before IN agonist): blocked
[Bip][dF]RWC-NH2 | 0% | 19% | 51 | 0 | 
D-Nal 2′-D-Phe-Arg-Trp-Cys-NH2 | 11% | 5% | 13 | 0 | 
Tic-D-Phe(4′-Cl)-Gln-Cys-NH2 | 2% | 0% | 13 | 3 | 
D-Tiq-D-Phe-Arg-Cys-Trp-NH2 | 43% | 13% | 39 | 3 | 
Amb-D-Phe-Arg-Cys-Trp-NH2 | 39% | 0% | 1 | 0 | 
3′-Br Phenyl acetyl-Arg-Arg-D-Phe(3′-Cl)-Cys-Nal 1′-NH2 | 61% | 62% | 83 | 49 | 
Z-D-Pyr-D-Phe-Arg-Trp-Cys-NH2 ({code Z}-[d(pGlu)][dF]RWC-NH2; reading uncertain; also: metal complex, printed as Z-D-Pyr-D-Phe-Arg-Trp-Cys-NH2) | 44% | 46% | 28 | 16 | 
Ser(Bzl)-D-Nal 2′-Arg-Nal 2′-Cys-NH2 | 18% | 71% | 91 | 23 | 
3′-Br Phenyl acetyl-Arg-Arg-D-Phe(4′-Cl)-Cys-Nal 1′-NH2 | 90% | 84% | 89 | 85 | 
1-amino-1-cyclopentane carboxyl-D-Phe-Arg-Cys-Trp-NH2 ([Ac5c][dF]RCW-NH2; N-terminus assumed; SMILES N=C(N)NCCC[C@H](NC(=O)[C@@H](Cc1ccccc1)NC(=O)C1(N)CCCC1)C(=O)N[C@@H](CS)C(=O)N[C@@H](Cc1c[nH]c2ccccc12)C(N)=O) | 78% | 16% | 60 | 0 | 
3′-Br Phenyl acetyl-Lys-Ala-D-Phe(2′-Cl)-Cys-Trp-NH2 | 9% | 34% | 44 | 19 | 
D-Nal 1′-D-Phe-Arg-Cys-Trp-NH2 | 22% | 8% | 48 | 0 | 
NH2(CH2)6CO-Ser(Bzl)-D-Nal 2′-Arg-D-Trp-Cys-NH2 | 6% | 92% | 83 | 58 | Functional activity at MC4-R (cAMP accumulation; inhibition of α-MSH-induced cAMP) [6]: MC4-R antagonists
3′-Bromo phenyl acetyl-Lys-Ala-D-Phe(3′-Cl)-Cys-Trp-NH2 | 4% | 38% | 60 | 13 | 
Amb-D-Phe-Arg-Trp-Cys-NH2 | 39% | 0% | 5 | 0 | 
Ac-Nle-Ala-His-D-Phe-Arg-D-Nal 1′-Cys-NH2 | 93% | 47% | 5 | 3 | 
Ser(Bzl)-D-Phe-Arg-Trp-Cys-NH2 ({Ser(Bzl)}-[dF]RWC-NH2; also: metal complex) | 27% | 28% | 69 | 0 | 
3′-Br Phenyl acetyl-Arg-Arg-D-Phe(4′-Me)-Cys-Trp-NH2 | 93% and 85% | 98% and 82% | 94 | 86 | 
D-Nal 1′-D-Phe-Arg-Trp-Cys-NH2 | 3% | 13% | 43 | 0 | 
7-amino-haptanoyl-D-Igl-D-Phe-Arg-Cys-NH2 | 8% | 10% | 32 | 0 | 
3′-Bromo phenyl acetyl-Lys-Ala-D-Phe(4′-Me)-Cys-Trp-NH2 | 0% | 73% | 80 | 19 | 
3′-Bromo phenyl acetyl-Arg-His-D-Phe(4′-Cl)-Cys-NH2 | 47% | 15% | 0 | 11 | 
Ac-Ala-His-D-Phe-Arg-Cys-Trp-NH2 ({Ac-Ala-H2N}-[dF]RCW-NH2; not fully specified; printed as Ac-Ala-His-D-Phe-Arg-Cys-Trp-NH2) | 61% | 0% | 9 | 0 | 
Aic-D-Phe-Arg-Trp-Cys-NH2 | 9% | 18% | 38 | 4 | 
Tiq-D-Phe-Arg-Trp-Cys-NH2 (Tiq-[dF]RWC-NH2; also: metal complex) | 7% | 8% | 55 | 7 | 
Ac-Leu-His-D-Phe-Arg-Cys-Trp-NH2 ({Ac-Leu-H2N}-[dF]RCW-NH2; not fully specified; printed as Ac-Leu-His-D-Phe-Arg-Cys-Trp-NH2) | 75% | 0% | 31 | 0 | 
3′-Bromo phenyl acetyl-Arg-Thr(Bzl)-D-Phe(4′-Cl)-Cys-NH2 | 16% | 6% | 21 | 5 | 
Pro-D-Phe-Arg-Cys-Trp-NH2 (P[dF]RCW-NH2; also: metal complex) | 27% | 2% | 33 | 0 | 
